Assay results reported in the kinase profiling compilation of Christmann-Franck et al. (2016).

Legend:
Assay in all cases: KINOMEscan competition binding
Conditions in all cases: compound 10.0 µM
[1] = test system: ABL1 (human), P00519 [M351T]
[2] = target: AKT2 (human) (UniProt P31751)
[3] = target: AKT3 (human) (UniProt Q9Y243)
[4] = target: BMP2K (human) (UniProt Q9NSY1)
[5] = target: BRAF (human) (UniProt P15056)
[6] = target: BTK (human) (UniProt Q06187)
[7] = target: CAMK2G (human) (UniProt Q13555)
[8] = target: CASK (human) (UniProt O14936)
[9] = target: CDK13 (human) (UniProt Q14004)
[10] = target: CDK7 (human) (UniProt P50613)
[11] = target: CSNK1G2 (human) (UniProt P78368)
[12] = target: CSNK2A1 (human) (UniProt P68400)
[13] = target: DAPK1 (human) (UniProt P53355)
[14] = target: EPHB3 (human) (UniProt P54753)
[15] = target: FES (human) (UniProt P07332)
[16] = target: FRK (human) (UniProt P42685)
[17] = target: GRK4 (human) (UniProt P32298)
GRK4 (human), sequence (P32298 whole entry, looked up): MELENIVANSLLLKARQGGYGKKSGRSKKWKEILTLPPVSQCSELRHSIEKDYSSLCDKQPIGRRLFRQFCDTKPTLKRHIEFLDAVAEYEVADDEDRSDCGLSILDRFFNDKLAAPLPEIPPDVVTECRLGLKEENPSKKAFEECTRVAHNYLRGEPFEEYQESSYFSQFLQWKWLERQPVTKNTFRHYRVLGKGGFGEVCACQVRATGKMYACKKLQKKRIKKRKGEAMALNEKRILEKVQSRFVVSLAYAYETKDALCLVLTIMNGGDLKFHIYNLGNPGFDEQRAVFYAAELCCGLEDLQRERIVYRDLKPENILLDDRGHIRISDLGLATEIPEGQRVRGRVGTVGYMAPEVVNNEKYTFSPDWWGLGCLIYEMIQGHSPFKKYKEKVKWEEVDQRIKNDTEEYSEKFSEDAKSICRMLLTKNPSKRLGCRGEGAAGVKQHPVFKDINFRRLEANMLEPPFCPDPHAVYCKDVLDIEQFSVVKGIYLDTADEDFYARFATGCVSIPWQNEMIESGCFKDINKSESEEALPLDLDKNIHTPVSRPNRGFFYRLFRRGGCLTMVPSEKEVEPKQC

[18] = target: HIPK1 (human) (UniProt Q86Z02)
[19] = target: IGF1R (human) (UniProt P08069)
[20] = target: JAK1 JH1 catalytic (human) (UniProt P23458)
[21] = target: JAK1 JH2 pseudokinase (human) (UniProt P23458)
[22] = test system: KIT (human), P10721 [D816H]
KIT (human), P10721 [D816H], sequence (P10721 whole entry D816H, looked up): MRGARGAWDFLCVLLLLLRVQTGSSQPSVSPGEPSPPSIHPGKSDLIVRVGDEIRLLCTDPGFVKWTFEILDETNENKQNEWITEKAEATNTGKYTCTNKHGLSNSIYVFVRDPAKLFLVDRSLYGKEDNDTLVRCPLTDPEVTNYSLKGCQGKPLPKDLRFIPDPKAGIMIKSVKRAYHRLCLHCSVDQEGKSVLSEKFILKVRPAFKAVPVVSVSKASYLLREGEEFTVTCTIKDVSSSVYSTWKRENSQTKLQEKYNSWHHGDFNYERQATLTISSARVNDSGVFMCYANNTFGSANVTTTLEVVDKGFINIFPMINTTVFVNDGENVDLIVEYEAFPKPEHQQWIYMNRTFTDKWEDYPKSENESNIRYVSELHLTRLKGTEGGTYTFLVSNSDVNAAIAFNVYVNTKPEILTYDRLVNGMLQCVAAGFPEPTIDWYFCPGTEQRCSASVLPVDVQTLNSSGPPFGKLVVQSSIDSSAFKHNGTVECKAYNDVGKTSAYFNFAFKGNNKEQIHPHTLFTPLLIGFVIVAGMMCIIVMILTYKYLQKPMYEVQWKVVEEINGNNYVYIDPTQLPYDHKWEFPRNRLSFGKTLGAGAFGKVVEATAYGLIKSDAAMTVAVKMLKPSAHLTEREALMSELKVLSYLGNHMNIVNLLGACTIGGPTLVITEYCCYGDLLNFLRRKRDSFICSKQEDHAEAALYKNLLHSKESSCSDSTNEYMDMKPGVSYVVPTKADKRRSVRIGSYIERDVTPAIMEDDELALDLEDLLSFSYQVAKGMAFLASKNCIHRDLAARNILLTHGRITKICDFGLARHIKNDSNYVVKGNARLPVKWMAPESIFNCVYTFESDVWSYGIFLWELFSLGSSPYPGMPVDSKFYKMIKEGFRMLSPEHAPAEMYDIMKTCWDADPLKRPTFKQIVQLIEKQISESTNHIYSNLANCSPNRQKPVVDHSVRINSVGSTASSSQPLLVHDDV

[23] = target: LCK (human) (UniProt P06239)
LCK (human), sequence (P06239 whole entry, looked up): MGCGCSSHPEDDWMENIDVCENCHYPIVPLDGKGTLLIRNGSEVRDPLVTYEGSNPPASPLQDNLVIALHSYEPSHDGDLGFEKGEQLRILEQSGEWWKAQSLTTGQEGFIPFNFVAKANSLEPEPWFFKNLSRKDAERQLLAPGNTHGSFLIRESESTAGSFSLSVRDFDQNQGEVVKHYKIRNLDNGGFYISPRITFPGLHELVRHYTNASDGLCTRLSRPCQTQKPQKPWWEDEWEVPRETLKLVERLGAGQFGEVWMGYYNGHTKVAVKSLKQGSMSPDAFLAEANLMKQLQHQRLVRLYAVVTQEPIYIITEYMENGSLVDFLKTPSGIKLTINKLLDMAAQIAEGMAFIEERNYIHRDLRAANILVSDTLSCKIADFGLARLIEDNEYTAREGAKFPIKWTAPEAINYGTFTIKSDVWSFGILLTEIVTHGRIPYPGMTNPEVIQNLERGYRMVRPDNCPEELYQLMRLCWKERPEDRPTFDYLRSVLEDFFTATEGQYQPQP

[24] = target: LIMK2 (human) (UniProt P53671)
[25] = target: LTK (human) (UniProt P29376)
[26] = target: LYN (human) (UniProt P07948)
[27] = target: MAP3K11 (human) (UniProt Q16584)
[28] = target: MAP4K2 (human) (UniProt Q12851)
[29] = target: MAPK10 (human) (UniProt P53779)
[30] = target: MAPKAPK5 (human) (UniProt Q8IW41)
MAPKAPK5 (human), sequence (Q8IW41 whole entry, looked up): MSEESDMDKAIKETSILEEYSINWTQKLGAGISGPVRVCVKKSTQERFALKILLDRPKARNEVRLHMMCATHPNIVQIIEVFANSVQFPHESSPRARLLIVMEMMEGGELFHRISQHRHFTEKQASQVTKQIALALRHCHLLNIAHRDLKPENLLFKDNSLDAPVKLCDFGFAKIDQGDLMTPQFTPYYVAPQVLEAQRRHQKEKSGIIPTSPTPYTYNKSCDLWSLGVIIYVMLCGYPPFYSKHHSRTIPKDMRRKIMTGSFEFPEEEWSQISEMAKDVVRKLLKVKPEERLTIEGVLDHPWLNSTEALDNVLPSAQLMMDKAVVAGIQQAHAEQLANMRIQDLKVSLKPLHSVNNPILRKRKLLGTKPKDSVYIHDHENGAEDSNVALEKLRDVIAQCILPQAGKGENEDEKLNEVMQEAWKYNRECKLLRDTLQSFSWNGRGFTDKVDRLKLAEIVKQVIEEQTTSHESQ

[31] = target: MAST1 (human) (UniProt Q9Y2H9)
[32] = target: MATK (human) (UniProt P42679)
MATK (human), sequence (P42679 whole entry, looked up): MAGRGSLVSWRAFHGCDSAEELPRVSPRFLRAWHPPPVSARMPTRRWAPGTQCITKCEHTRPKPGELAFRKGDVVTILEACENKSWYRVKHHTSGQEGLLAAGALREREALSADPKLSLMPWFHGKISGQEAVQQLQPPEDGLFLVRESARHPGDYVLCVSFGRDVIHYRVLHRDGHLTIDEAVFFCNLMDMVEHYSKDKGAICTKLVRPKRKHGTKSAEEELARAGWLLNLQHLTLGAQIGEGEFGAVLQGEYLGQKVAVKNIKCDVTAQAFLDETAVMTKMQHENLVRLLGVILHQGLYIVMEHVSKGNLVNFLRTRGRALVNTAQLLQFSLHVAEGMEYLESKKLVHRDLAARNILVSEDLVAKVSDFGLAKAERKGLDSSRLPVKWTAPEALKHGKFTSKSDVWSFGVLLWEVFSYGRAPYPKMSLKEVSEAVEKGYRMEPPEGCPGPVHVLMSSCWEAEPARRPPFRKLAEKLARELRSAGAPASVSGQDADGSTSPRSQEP

[33] = target: MTOR (human) (UniProt P42345)
[34] = target: PAK3 (human) (UniProt O75914)
PAK3 (human), sequence (O75914 whole entry, looked up): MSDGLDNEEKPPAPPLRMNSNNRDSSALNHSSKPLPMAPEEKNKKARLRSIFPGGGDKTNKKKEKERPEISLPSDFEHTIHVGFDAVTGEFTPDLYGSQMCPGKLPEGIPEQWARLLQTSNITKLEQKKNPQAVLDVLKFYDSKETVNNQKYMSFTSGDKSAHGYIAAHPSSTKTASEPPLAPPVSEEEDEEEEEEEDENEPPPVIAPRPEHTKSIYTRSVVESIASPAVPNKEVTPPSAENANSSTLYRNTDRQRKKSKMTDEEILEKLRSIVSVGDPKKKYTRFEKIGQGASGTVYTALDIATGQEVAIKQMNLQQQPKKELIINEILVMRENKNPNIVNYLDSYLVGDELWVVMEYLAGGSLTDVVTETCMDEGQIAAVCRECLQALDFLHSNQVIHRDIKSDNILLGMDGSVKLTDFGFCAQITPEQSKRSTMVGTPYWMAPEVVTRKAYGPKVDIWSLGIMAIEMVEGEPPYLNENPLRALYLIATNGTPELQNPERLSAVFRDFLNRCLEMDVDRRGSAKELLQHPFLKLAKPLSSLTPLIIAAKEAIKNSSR

[35] = target: PDGFRB (human) (UniProt P09619)
PDGFRB (human), sequence (P09619 whole entry, looked up): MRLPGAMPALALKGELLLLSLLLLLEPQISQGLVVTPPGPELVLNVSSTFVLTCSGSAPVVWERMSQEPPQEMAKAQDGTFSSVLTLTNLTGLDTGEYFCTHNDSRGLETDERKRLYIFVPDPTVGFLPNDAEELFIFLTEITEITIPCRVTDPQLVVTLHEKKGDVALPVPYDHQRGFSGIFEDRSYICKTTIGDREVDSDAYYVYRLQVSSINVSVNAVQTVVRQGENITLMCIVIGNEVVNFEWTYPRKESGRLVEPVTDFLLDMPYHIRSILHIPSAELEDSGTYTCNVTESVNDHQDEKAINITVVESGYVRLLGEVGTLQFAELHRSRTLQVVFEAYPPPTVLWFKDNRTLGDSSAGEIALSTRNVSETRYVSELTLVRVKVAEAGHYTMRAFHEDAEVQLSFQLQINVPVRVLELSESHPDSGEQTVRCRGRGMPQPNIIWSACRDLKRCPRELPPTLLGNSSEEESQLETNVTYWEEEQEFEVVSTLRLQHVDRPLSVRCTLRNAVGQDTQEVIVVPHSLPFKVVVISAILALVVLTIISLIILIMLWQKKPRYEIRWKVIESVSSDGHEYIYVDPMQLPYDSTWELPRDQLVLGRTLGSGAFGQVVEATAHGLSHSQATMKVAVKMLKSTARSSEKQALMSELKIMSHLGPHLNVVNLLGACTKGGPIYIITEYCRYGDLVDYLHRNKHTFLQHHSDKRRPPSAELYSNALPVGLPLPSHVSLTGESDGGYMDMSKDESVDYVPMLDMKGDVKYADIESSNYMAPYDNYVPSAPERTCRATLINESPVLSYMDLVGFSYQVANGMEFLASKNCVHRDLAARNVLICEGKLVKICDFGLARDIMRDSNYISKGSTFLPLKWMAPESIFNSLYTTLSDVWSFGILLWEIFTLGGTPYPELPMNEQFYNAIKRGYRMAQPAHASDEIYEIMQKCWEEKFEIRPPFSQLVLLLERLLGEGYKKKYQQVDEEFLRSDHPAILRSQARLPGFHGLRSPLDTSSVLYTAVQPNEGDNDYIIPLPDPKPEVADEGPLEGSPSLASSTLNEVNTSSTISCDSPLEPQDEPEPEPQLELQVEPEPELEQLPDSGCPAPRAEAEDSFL

[36] = target: PIM2 (human) (UniProt Q9P1W9)
PIM2 (human), sequence (Q9P1W9 whole entry, looked up): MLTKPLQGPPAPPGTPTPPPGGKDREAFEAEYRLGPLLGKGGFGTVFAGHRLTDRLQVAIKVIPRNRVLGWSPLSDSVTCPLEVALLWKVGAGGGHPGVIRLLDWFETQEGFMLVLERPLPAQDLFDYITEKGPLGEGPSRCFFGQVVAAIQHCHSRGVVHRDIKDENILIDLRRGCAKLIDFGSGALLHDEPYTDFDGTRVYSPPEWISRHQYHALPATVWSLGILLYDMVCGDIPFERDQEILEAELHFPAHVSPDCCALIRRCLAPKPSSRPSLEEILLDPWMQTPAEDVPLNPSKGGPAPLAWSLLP

[37] = target: PIM3 (human) (UniProt Q86V86)
[38] = target: PRPF4B (human) (UniProt Q13523)
[39] = target: PTK6 (human) (UniProt Q13882)
[40] = test system: RET (human), P07949 [M918T]
[41] = target: SGK110 (human) (UniProt P0C264)
[42] = target: STK36 (human) (UniProt Q9NRP7)

Cc1cc([C@@H](C)Nc2ccccc2C(=O)O)c2nc(N3CCOCC3)cc(=O)n2c1
kinase still bound, per cent of control [1]: 100% | kinase still bound, per cent of control [2]: 100% | kinase still bound, per cent of control [3]: 80% | kinase still bound, per cent of control [4]: 100% | kinase still bound, per cent of control [5]: 74% | kinase still bound, per cent of control [6]: 80% | kinase still bound, per cent of control [7]: 87% | kinase still bound, per cent of control [8]: 100% | kinase still bound, per cent of control [9]: 100% | kinase still bound, per cent of control [10]: 90% | kinase still bound, per cent of control [11]: 100% | kinase still bound, per cent of control [12]: 66% | kinase still bound, per cent of control [13]: 100% | kinase still bound, per cent of control [14]: 100% | kinase still bound, per cent of control [15]: 100% | kinase still bound, per cent of control [16]: 47% | kinase still bound, per cent of control [17]: 80% | kinase still bound, per cent of control [18]: 87% | kinase still bound, per cent of control [19]: 100% | kinase still bound, per cent of control [20]: 70% | kinase still bound, per cent of control [21]: 100% | kinase still bound, per cent of control [22]: 93% | kinase still bound, per cent of control [23]: 81% | kinase still bound, per cent of control [24]: 100% | kinase still bound, per cent of control [25]: 61% | kinase still bound, per cent of control [26]: 89% | kinase still bound, per cent of control [27]: 95% | kinase still bound, per cent of control [28]: 97% | kinase still bound, per cent of control [29]: 66% | kinase still bound, per cent of control [30]: 90% | kinase still bound, per cent of control [31]: 54% | kinase still bound, per cent of control [32]: 57% | kinase still bound, per cent of control [33]: 18% | kinase still bound, per cent of control [34]: 12% | kinase still bound, per cent of control [35]: 58% | kinase still bound, per cent of control [36]: 83% | kinase still bound, per cent of control [37]: 100% | kinase still bound, per cent of control [38]: 100% | kinase still bound, per cent of control [39]: 15% | kinase still bound, per cent of control [40]: 100% | kinase still bound, per cent of control [41]: 68% | kinase still bound, per cent of control [42]: 82%
